Measured values published in patent US9114149B2, “[CU(thp)4]n[X]-n compounds for the treatment of a broad range of human solid tumors, including refractory tumors” (Universita Degli Studi Di Padova, priority 2011, dated 2015).
Values joined by “and” are separate entries in the source; they are usually repeats but may differ in a detail not shown here. Equal entries are not always repeated.

Assays:
SK-Hep-1 = assay: MTT cytotoxicity, SK-Hep-1 (liver); assay type: cell-based, human; settings: MTT test, 72 hrs
Description: (§1) The in vitro antitumor activity of CP had been deeply evaluated in several human cancer cell lines by in vitro cytotoxicity assays. CP cytotoxicity has been detected in a large panel of human cell lines derived from a wide variety of solid tumors, including refractory tumors. In Table 1, the cytotoxicity parameters IC50 (that is the median growth inhibitory concentrations calculated from dose-survival curves via MTT test) are tabulated.
(§2) Cell lines representative of lung (H157, U1810, U1285, Calu-1), pancreas (MIA PaCa-2, BxPC-3, AsPC-1, Capan-1), liver (Huh-7, Hep 3B, SK-Hep-1), oesophagus (OE33, OE21), oesophagus/gastric cardia (OE19), stomach (BGC-823, AGS), colon (HCT-116, T84, COLO 205), breast (MDA-MB-231, SK-BR-3), cervix (CaSki, C-33 A) ovarian (A2780, SK-OV-3, IGROV1), prostate (LnCaP, PC-3) cancers along with melanoma (MEWO, G361, C-32), neuroblastoma (SH-SY5Y, SK-N-AS, IMR-32) and osteosarcoma (U-2 OS, MG-63) have been treated with increasing concentration of CP for 72 hrs.

CaSki = assay: MTT cytotoxicity, CaSki (cervix); assay type: cell-based, human; settings: MTT test, 72 hrs
Description: as §1, §2

Huh-7 = assay: MTT cytotoxicity, Huh-7 (liver); assay type: cell-based, human; settings: MTT test, 72 hrs
Description: as §1, §2

U1810 = assay: MTT cytotoxicity, U1810 (lung); assay type: cell-based, human; settings: MTT test, 72 hrs
Description: as §1, §2

C-32 = assay: MTT cytotoxicity, C-32 (skin); assay type: cell-based, human; settings: MTT test, 72 hrs
Description: as §1, §2

IMR-32 = assay: MTT cytotoxicity, IMR-32 (brain); assay type: cell-based, human; settings: MTT test, 72 hrs
MDA-MB-231 = assay: MTT cytotoxicity, MDA-MB-231 (breast); assay type: cell-based, human; settings: MTT test, 72 hrs
Description: as §1, §2

Capan-1 = assay: MTT cytotoxicity, Capan-1 (pancreas); assay type: cell-based, human; settings: MTT test, 72 hrs
Description: as §1, §2

[1] = test system: Lewis lung carcinoma (LLC); assay: Early-stage treatment of LLC-bearing mice; assay type: in vivo, C57BL mice; settings: for Average tumor weight (mean ± S.D.) / Inhibition of tumor growth: early-stage; for Average tumor weight (mean ± S.D.): day 15; for Inhibition of tumor growth: day 15, referred to control
Method: Body weight was measured every two days and was taken as a parameter of systemic toxicity. The X axis indicates the days after transplantation whereas the Y axis indicates the percentage of body weight changes. […] The error bars indicate the SD.
The antitumor efficacy of CP was evaluated in a model of solid tumor, the syngeneic murine Lewis Lung Carcinoma (also indicated as LLC). […] Body weight of tumor-bearing mice has been measured every two days simultaneously with antitumor analyses and was taken as a parameter of systemic toxicity.
LLC was implanted intramuscularly (i.m., 2×10^6 cells inoculum) into the right hind leg of 8-week old inbred C57BL mice (24±3 g body weight) and, after 24 h from tumor implantation, mice were randomly divided into five groups (8 animals per group, 10 controls). CP was dosed at 25, 35 and 50 mk/kg i.p. on days 3, 5, 7, 9, 11 and 13 after tumor implantation. […] At day 15, animals were sacrificed, and the inhibition of tumor growth was evaluated.

[2] = test system: Lewis lung carcinoma (LLC); assay: Advanced-stage treatment (2) of LLC-bearing mice; assay type: in vivo, C57BL mice; settings: advanced-stage (2); for Average tumor weight (mean ± S.D.): day 15; for Inhibition of tumor growth: day 15, referred to control
Method: Body weight was measured at day 1 and every two days from day 9 and was taken as a parameter of systemic toxicity. The X axis indicates the days after transplantation whereas the Y axis indicates the percentage of body weight changes. […] The error bars indicate the SD.
The complete disappearance of primary tumors in these mice was confirmed by dissection on day 15.
The in vivo antitumor activity of CP in LLC tumor model has been further investigated by means of other protocols, such as advanced-stage treatment (1), and advanced-stage treatment (2). For upstaged or advanced stage disease, LLC tumors were allowed to establish and grow to visible (advanced-stage treatment 1) and palpable (advanced-stage treatment 2) size before the start of chemotherapy. The results shown in Table 8 and 9, attested that CP was efficacious even at the lowest dose schedules.

[3] = Tissue distribution (Cu content) in LLC bearing mice; assay type: in vivo, C57BL mice; settings: 50 mg/kg i.p., 24 hrs; Cu by atomic absorption, treated versus control (FIG. 4)
Method: Mice were inoculated […]. on the right flank with 2×10^6 LLC cells. After 10 days, CP was administered i.p. at a dose of 50 mg/kg. The mice were sacrificed after 24 hours and tumor (indicated with 1), brain (indicated with 2), spleen (indicated with 3), kidney (indicated with 4), intestine (indicated with 5), liver (indicated with 6) and stomach (indicated with 7) were excised. Tissues were washed in ice-cold saline and weighed after removing excess fluid. All samples were mineralized in HNO3 and Cu content in each sample was measured by atomic absorption spectrophotometry. The Y axis indicates the ratio of copper amount in treated versus control mice.
To assess the potential selectivity to the solid tumor mass, tissue distribution of CP was investigated in LLC bearing C57BL mice. Biodistribution studies are very helpful in assessing the ability of a molecule to traverse multilayers of cells. Chemotherapy of solid tumors often fails because adequate cytotoxic concentrations are not achieved due to poor penetration and non-uniform distribution of the drug.
To assess the potential selectivity to the solid tumor mass, tissue distribution of [Cu(thp)4][PF6] (CP) was investigated in LLC bearing C57BL mice. On day 10 after tumor implantation, mice were treated with a single i.p. injection of 50 mg/kg of CP.

[4] = test system: human leukemic cell lines; assay: Cytotoxicity against human leukemic cell lines; assay type: cell-based; settings: several human leukemic cell lines
Description: (§3) The detection of drug uptake by tumor cells in animal models clearly attest that CP efficiently and selectively accumulates in the solid tumor mass.

L1210 murine leukemia = assay: Antitumor efficacy in murine leukemia; assay type: in vivo; settings: established animal leukaemia
Method: as §3
The antitumor efficacy of CP was evaluated in L1210 murine leukemia and in mouse Lewis Lung carcinoma (LLC).

[5] = test system: human cancer versus human normal cells
[6] = test system: human cancer cell lines derived from solid tumors; assay: MTT cytotoxicity, whole panel of human solid tumor cell lines; assay type: cell-based; settings: Table 1 panel, maximum
Description: as §1, §2
In colon, liver, brain, ovary and prostate cell line panels IC50 values in the submicromolar range have been obtained.

[7] = test system: human colon adenocarcinoma cells sensitive (HCT-116); assay: Cross resistance MTT test, HCT-116 (OXP sensitive); assay type: cell-based; settings: 72 h, probit analysis
Solubility in water = assay type: physicochemical
[8] = 1.5 mg/kg ip days 3, 5, 7, 9, 11, 13
[9] = human non-tumor versus malignant cells
[10] = 35 mg/kg ip days 3, 5, 7, 9, 11, 13
[11] = 50 mg/kg ip days 3, 5, 7, 9, 11, 13
[12] = 50 mg/kg ip days 9-11 then 30 mg/kg days 12-14

**Q.** For `N.N.[Cl][Pt][Cl]` [CDDP, cis-diamminodichloro platinum(II)], which IC50 (SK-Hep-1) is on record?
**A.** 27.1 ± 2.94 µM

**Q.** What about the IC50 (CaSki) of the same compound?
**A.** 31.1 ± 2.97 µM

**Q.** What about the IC50 (Huh-7) of the same compound?
**A.** 3240 ± 960 nM

**Q.** And the IC50 (U1810)?
**A.** 3240 ± 1920 nM

**Q.** And the IC50 (C-32)?
**A.** 1060 ± 980 nM

**Q.** What about the IC50 (IMR-32) of the same compound?
**A.** 4450 ± 980 nM

**Q.** What about the IC50 (MDA-MB-231) of the same compound?
**A.** 3230 ± 1560 nM

**Q.** What about the IC50 (Capan-1) of the same compound?
**A.** 9.81 ± 1.38 µM

**Q.** What about the body weight loss ([1]; early-stage LLC mice, 1.5 mg/kg, after the sixth administration (FIG. 1)) of the same compound?
**A.** about 30%

**Q.** What about the “Average tumor weight (mean ± S.D.)” value [1, 8] of the same compound?
**A.** 0.168 ± 0.10 g

**Q.** And the “Inhibition of tumor growth” value [1, 8]?
**A.** 73.66%

**Q.** What about the “Average tumor weight (mean ± S.D.)” value ([2]; 1.5 mg/kg ip daily from day 9) of the same compound?
**A.** 0.118 ± 0.10 g

**Q.** What about the “Inhibition of tumor growth” value ([2]; 1.5 mg/kg ip daily from day 9, 1.5 mg/kg) of the same compound?
**A.** 72% and 72.68%

**Q.** For `F[P-](F)(F)(F)(F)F.OC[P+](CO)(CO)[Cu-3]([P+](CO)(CO)CO)([P+](CO)(CO)CO)[P+](CO)(CO)CO` [CP, [Cu(thp)4][PF6]], which “CP concentration in solid tumor mass” value [3] is on record?
**A.** highest CP concentration

**Q.** And the “copper drug in brain” value [3]?
**A.** No copper drug was detected

**Q.** What about the “copper drug in intestinal tract” value [3] of the same compound?
**A.** very little

**Q.** And the IC50 (SK-Hep-1)?
**A.** 0.86 ± 0.75 µM

**Q.** What about the IC50 (CaSki) of the same compound?
**A.** 3.16 ± 1.45 µM

**Q.** What about the “cytotoxicity against human leukemic cell lines” value [4] of the same compound?
**A.** high cytotoxicity

**Q.** What about the IC50 (Huh-7) of the same compound?
**A.** 760 ± 310 nM

**Q.** And the IC50 (U1810)?
**A.** 760 ± 1020 nM

**Q.** What about the “antitumor efficacy against animal leukaemia” value (L1210 murine leukemia) of the same compound?
**A.** failed to show significant antitumor efficacy

**Q.** And the IC50 (C-32)?
**A.** 560 ± 430 nM

**Q.** And the IC50 (IMR-32)?
**A.** 720 ± 180 nM

**Q.** And the IC50 (MDA-MB-231)?
**A.** 2110 ± 1230 nM

**Q.** What about the “Selectivity index (SI)” value ([5]; average IC50 towards normal cells divided by average IC50 for the malignant cells) of the same compound?
**A.** 32.4

**Q.** What about the “SI fold higher than CDDP” value [5, 9] of the same compound?
**A.** about 2 fold

**Q.** What about the “SI fold higher than OXP” value [5, 9] of the same compound?
**A.** ~3 fold

**Q.** And the “fold more cytotoxic than CDDP” value [6]?
**A.** up to 50 fold

**Q.** And the “fold more cytotoxic than OXP” value [6]?
**A.** ≤ 30 fold

**Q.** And the IC50 (Capan-1)?
**A.** 2.43 ± 0.84 µM

**Q.** What about the “body weight loss compared with the non-treated group” value ([1]; early-stage LLC mice, even at the highest doses (FIG. 1)) of the same compound?
**A.** no significant body weight loss

**Q.** What about the “Average tumor weight (mean ± S.D.)” value ([1]; 25 mg/kg ip days 3, 5, 7, 9, 11, 13) of the same compound?
**A.** 0.473 ± 0.12 g

**Q.** And the “Inhibition of tumor growth” value ([1]; 25 mg/kg ip days 3, 5, 7, 9, 11, 13, 25 mg/kg)?
**A.** 26% and 25.86%

**Q.** And the “Average tumor weight (mean ± S.D.)” value [1, 10]?
**A.** 0.273 ± 0.04 g

**Q.** And the “Inhibition of tumor growth” value [1, 10]?
**A.** 57.21%

**Q.** What about the “Average tumor weight (mean ± S.D.)” value [1, 11] of the same compound?
**A.** 0.113 ± 0.04 g

**Q.** And the “Inhibition of tumor growth” value [1, 11]?
**A.** 82.28%

**Q.** And the “Average tumor weight (mean ± S.D.)” value [2, 12]?
**A.** 0.024 ± 0.03 g

**Q.** And the “Inhibition of tumor growth” value [2, 12]?
**A.** 94.44%

**Q.** What about the “tumor regression (in words)” value ([2]; 50 mg/kg loading then 30 mg/kg maintenance, after the sixth administration) of the same compound?
**A.** quite complete tumor regression

**Q.** And the IC50 [7]?
**A.** 1400 ± 500 nM

**Q.** What about the solubility in water (Solubility in water) of the same compound?
**A.** excellent solubility in water
